In patent US9718828B2 (MERCK SHARP & DOHME CORP., priority 2011, dated 2017) one finds IC50 data, which are given here for 24 molecules.

Sequence of hBTK (full-length BTK, 6HIS-tag cleaved) (Q06187 whole entry): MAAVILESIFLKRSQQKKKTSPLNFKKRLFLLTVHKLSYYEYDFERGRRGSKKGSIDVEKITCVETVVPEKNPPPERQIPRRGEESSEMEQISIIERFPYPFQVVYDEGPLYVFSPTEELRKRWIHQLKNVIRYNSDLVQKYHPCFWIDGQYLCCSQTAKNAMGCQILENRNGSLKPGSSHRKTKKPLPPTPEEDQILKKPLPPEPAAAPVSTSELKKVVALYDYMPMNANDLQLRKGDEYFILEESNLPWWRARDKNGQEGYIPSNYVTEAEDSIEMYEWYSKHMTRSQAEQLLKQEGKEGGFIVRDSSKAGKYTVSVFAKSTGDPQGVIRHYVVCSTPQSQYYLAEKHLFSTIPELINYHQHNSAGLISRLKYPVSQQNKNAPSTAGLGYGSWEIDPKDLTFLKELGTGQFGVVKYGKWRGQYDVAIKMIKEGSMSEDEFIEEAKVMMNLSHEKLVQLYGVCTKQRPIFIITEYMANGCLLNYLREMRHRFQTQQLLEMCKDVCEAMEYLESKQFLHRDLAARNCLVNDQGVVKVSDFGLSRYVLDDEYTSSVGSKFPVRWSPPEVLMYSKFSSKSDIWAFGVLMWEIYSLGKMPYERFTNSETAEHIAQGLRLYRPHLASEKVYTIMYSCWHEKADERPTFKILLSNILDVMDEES

The first test concerns the target hBTK (full-length BTK, 6HIS-tag cleaved) (Homo sapiens (Human), UniProt Q06187). As to the kind of experiment: BTK enzymatic activity, LANCE TR-FRET assay (Assay Method C). It counts as biochemical. As to conditions: LANCE TR-FRET, 50 pM hBTK, 25 μM ATP; class 100-1000 is given as ≧100 nM-<1 μM; read-out: IC50 Btk activity values - Assay Method C. (In general: TR-FRET usually uses a lanthanide donor and a delayed reading to cut background.)
One may read the IC50 as the midpoint of a concentration-inhibition curve. In the case of `CNC(=O)N1C[C@@H](c2nc(-c3ccc(C(=O)Nc4cc(C(F)(F)F)ccn4)cc3)c3c(N)nccn23)CC[C@@H]1C(F)(F)F` [Example 412, (2R,5S)-5-[8-amino-1-(4-{[4-(trifluoromethyl)pyridin-2-yl]carbamoyl}phenyl)imidazo[1,5-a]pyrazin-3-yl]-N-methyl-2-(trifluoromethyl)piperidine-1-carboxamide], the IC50 is less than 10 nM. The same measure, in the same setting: the result for `C[C@H]1CC[C@@H](c2nc(-c3ccc(C(=O)Nc4cc(C(C)(F)F)ccn4)cc3)c3c(N)nccn23)CN1C(=O)C1(C)COC1` [Example 413, 4-(8-amino-3-{(3R,6S)-6-methyl-1-[(3-methyloxetan-3-yl)carbonyl]piperidin-3-yl}imidazo[1,5-a]pyrazin-1-yl)-N-[4-(1,1-difluoroethyl)pyridin-2-yl]benzamide] reads less than 10 nM; that for `CN1C[C@@H](c2nc(-c3ccc(C(=O)Nc4cc(C(F)(F)F)ccn4)cc3)c3c(N)nccn23)CC[C@H]1C(F)(F)F` [Example 414, 4-{8-amino-3-[(3S,6S)-1-methyl-6-(trifluoromethyl)piperidin-3-yl]imidazo[1,5-a]pyrazin-1-yl}-N-[4-(trifluoromethyl)pyridin-2-yl]benzamide], less than 10 nM.

Regarding `CCC(=O)N1C[C@@H](c2nc(-c3ccc(C(=O)Nc4cc(C(F)(F)F)ccn4)cc3)c3c(N)nccn23)CC[C@@H]1C(F)(F)F` [Example 415, 4-{8-amino-3-[(3S,6R)-1-propanoyl-6-(trifluoromethyl)piperidin-3-yl]imidazo[1,5-a]pyrazin-1-yl}-N-[4-(trifluoromethyl)pyridin-2-yl]benzamide], the IC50 is less than 10 nM. Regarding `CC(C)COc1ccnc(NC(=O)c2ccc(-c3nc([C@@H]4CC[C@H](C)N(C(=O)C5(C)COC5)C4)n4ccnc(N)c34)cc2)c1` [Example 417, 4-(8-amino-3-{(3R,6S)-6-methyl-1-[(3-methyloxetan-3-yl)carbonyl]piperidin-3-yl}imidazo[1,5-a]pyrazin-1-yl)-N-[4-(2-methylpropoxy)pyridin-2-yl]benzamide], the IC50 was less than 10 nM. Turning to `C[C@H]1CC[C@@H](c2nc(-c3ccc(C(=O)Nc4cc(OCC(F)(F)F)ccn4)cc3)c3c(N)nccn23)CN1C(=O)C1(C)COC1` [Example 418, 4-(8-amino-3-{(3R,6S)-6-methyl-1-[(3-methyloxetan-3-yl)carbonyl]piperidin-3-yl}imidazo[1,5-a]pyrazin-1-yl)-N-[4-(2,2,2-trifluoroethoxy)pyridin-2-yl]benzamide], the IC50 was less than 10 nM. For `Nc1nccn2c([C@H]3CC[C@@H](CO)N(C(=O)C4CC4)C3)nc(-c3ccc(C(=O)Nc4cc(C(F)(F)F)ccn4)cc3)c12` [Example 419, 4-{8-amino-3-[(3S,6S)-1-(cyclopropylcarbonyl)-6-(hydroxymethyl)piperidin-3-yl]imidazo[1,5-a]pyrazin-1-yl}-N-[4-(trifluoromethyl)pyridin-2-yl]benzamide], the IC50 was less than 10 nM. Regarding `Nc1nccn2c([C@H]3CC[C@H](C(F)(F)F)N(C(=O)C4CC4)C3)nc(-c3ccc(C(=O)Nc4cc(F)ccn4)cc3)c12` [Example 424, 4-{8-amino-3-[(3S,6R)-1-(cyclopropylcarbonyl)-6-(trifluoromethyl)piperidin-3-yl]imidazo[1,5-a]pyrazin-1-yl}-N-(4-fluoropyridin-2-yl)benzamide], the IC50 is less than 10 nM. Still for that read-out and setting: the result for `Cc1ccnc(NC(=O)c2ccc(-c3nc([C@H]4CC[C@H](C(F)(F)F)N(C(=O)C5CC5)C4)n4ccnc(N)c34)cc2)c1` [Example 425, 4-{8-amino-3-[(3S,6R)-1-(cyclopropylcarbonyl)-6-(trifluoromethyl)piperidin-3-yl]imidazo[1,5-a]pyrazin-1-yl}-N-(4-methylpyridin-2-yl)benzamide] reads less than 10 nM; that for `CN(C)C(=O)N1C[C@@H](c2nc(-c3ccc(C(=O)Nc4cc(C(F)(F)F)ccn4)cc3)c3c(N)nccn23)CC[C@@H]1C(F)(F)F` [Example 426, (2R,5S)-5-[8-amino-1-(4-{[4-(trifluoromethyl)pyridin-2-yl]carbamoyl}phenyl)imidazo[1,5-a]pyrazin-3-yl]-N,N-dimethyl-2-(trifluoromethyl)piperidine-1-carboxamide], less than 10 nM; that for `CC(=O)N1C[C@@H](c2nc(-c3ccc(C(=O)Nc4cc(C(F)(F)F)ccn4)cc3)c3c(N)nccn23)CC[C@@H]1C(F)(F)F` [Example 427, 4-{3-[(3S,6R)-1-acetyl-6-(trifluoromethyl)piperidin-3-yl]-8-aminoimidazo[1,5-a]pyrazin-1-yl}-N-[4-(trifluoromethyl)pyridin-2-yl]benzamide], less than 10 nM.

`COC(=O)N1C[C@@H](c2nc(-c3ccc(C(=O)Nc4cc(C(F)(F)F)ccn4)cc3)c3c(N)nccn23)CC[C@@H]1C(F)(F)F` [Example 430, methyl (2R,5S)-5-[8-amino-1-(4-{[4-(trifluoromethyl)pyridin-2-yl]carbamoyl}phenyl)imidazo[1,5-a]pyrazin-3-yl]-2-(trifluoromethyl)piperidine-1-carboxylate]: the IC50 was less than 10 nM. On the same count and under the same terms, the result for `C[C@H]1CC[C@@H](c2nc(-c3ccc(C(=O)Nc4cc(C(F)F)ccn4)cc3F)c3c(N)nccn23)CN1C(=O)C1(C)COC1` [Example 434, 4-(8-amino-3-{(3R,6S)-6-methyl-1-[(3-methyloxetan-3-yl)carbonyl]piperidin-3-yl}imidazo[1,5-a]pyrazin-1-yl)-N-[4-(difluoromethyl)pyridin-2-yl]-3-fluorobenzamide] reads less than 10 nM; that for `CC(=O)N1C[C@H](c2nc(-c3ccc(C(=O)Nc4cc(C(F)F)ccn4)cc3F)c3c(N)nccn23)CC[C@@H]1C` [Example 435, 4-{3-[(3R,6S)-1-acetyl-6-methylpiperidin-3-yl]-8-aminoimidazo[1,5-a]pyrazin-1-yl}-N-[4-(difluoromethyl)pyridin-2-yl]-3-fluorobenzamide], less than 10 nM.

Consider `C[C@H]1CC[C@@H](c2nc(-c3ccc(C(=O)Nc4cc(C(F)F)ccn4)cc3F)c3c(N)nccn23)CN1C(=O)C1CC1` [Example 436, 4-{8-amino-3-[(3R,6S)-1-(cyclopropylcarbonyl)-6-methylpiperidin-3-yl]imidazo[1,5-a]pyrazin-1-yl}-N-[4-(difluoromethyl)pyridin-2-yl]-3-fluorobenzamide], for which the IC50 is less than 10 nM.

Consider `Nc1nccn2c([C@H]3CC[C@H](C(F)(F)F)N(CCO)C3)nc(-c3ccc(C(=O)Nc4cc(C(F)(F)F)ccn4)cc3)c12` [Example 437, 4-{8-amino-3-[(3S,6R)-1-(2-hydroxyethyl)-6-(trifluoromethyl)piperidin-3-yl]imidazo[1,5-a]pyrazin-1-yl}-N-[4-(trifluoromethyl)pyridin-2-yl]benzamide], for which the IC50 is less than 10 nM. Still for that read-out and setting: as for `CC1(C(=O)N2CCC[C@@](C)(c3nc(-c4ccc(C(=O)Nc5cc(C(F)(F)F)ccn5)cc4)c4c(N)nccn34)C2)COC1` [Example 438, 4-(8-amino-3-{(3R)-3-methyl-1-[(3-methyloxetan-3-yl)carbonyl]piperidin-3-yl}imidazo[1,5-a]pyrazin-1-yl)-N-[4-(trifluoromethyl)pyridin-2-yl]benzamide], the figure is less than 10 nM. Consider `CC1(C(=O)N2CCC[C@@](O)(c3nc(-c4ccc(C(=O)Nc5cc(C(F)(F)F)ccn5)cc4)c4c(N)nccn34)C2)COC1` [Example 439, 4-(8-amino-3-{(3S)-3-hydroxy-1-[(3-methyloxetan-3-yl)carbonyl]piperidin-3-yl}imidazo[1,5-a]pyrazin-1-yl)-N-[4-(trifluoromethyl)pyridin-2-yl]benzamide], for which the IC50 was less than 10 nM. On the same count and under the same terms, as for `CC(=O)N1CCC[C@@H](c2nc(-c3ccc(C(=O)Nc4cc(C(F)(F)F)ccn4)cc3)c3c(N)ncc(Cl)n23)C1` [Example 440, 4-{3-[(3R)-1-acetylpiperidin-3-yl]-8-amino-5-chloroimidazo[1,5-a]pyrazin-1-yl}-N-[4-(trifluoromethyl)pyridin-2-yl]benzamide], the figure is less than 10 nM; as for `Nc1ncc(Cl)n2c([C@@H]3CCCN(C(=O)CO)C3)nc(-c3ccc(C(=O)Nc4cc(C(F)(F)F)ccn4)cc3)c12` [Example 441, 4-{8-amino-5-chloro-3-[(3R)-1-(hydroxyacetyl)piperidin-3-yl]imidazo[1,5-a]pyrazin-1-yl}-N-[4-(trifluoromethyl)pyridin-2-yl]benzamide], less than 10 nM. Turning to `COCC(=O)N1CCC[C@@H](c2nc(-c3ccc(C(=O)Nc4cc(C(F)(F)F)ccn4)cc3)c3c(N)ncc(Cl)n23)C1` [Example 442, 4-{8-amino-5-chloro-3-[(3R)-1-(methoxyacetyl)piperidin-3-yl]imidazo[1,5-a]pyrazin-1-yl}-N-[4-(trifluoromethyl)pyridin-2-yl]benzamide], the IC50 was less than 10 nM.

On to `Nc1ncc(Cl)n2c([C@@H]3CCCN(C=O)C3)nc(-c3ccc(C(=O)Nc4cc(C(F)(F)F)ccn4)cc3)c12` [Example 443, 4-{8-amino-5-chloro-3-[(3R)-1-formylpiperidin-3-yl]imidazo[1,5-a]pyrazin-1-yl}-N-[4-(trifluoromethyl)pyridin-2-yl]benzamide], for which the IC50 is less than 10 nM. Take `COc1ccnc(NC(=O)c2ccc(-c3nc([C@@H]4CCCN(C(=O)C5(C)COC5)C4)n4c(Cl)cnc(N)c34)cc2)c1` [Example 444, 4-(8-amino-5-chloro-3-{(3R)-1-[(3-methyloxetan-3-yl)carbonyl]piperidin-3-yl}imidazo[1,5-a]pyrazin-1-yl)-N-(4-methoxypyridin-2-yl)benzamide]: the IC50 is less than 10 nM. Same read-out and setting: the result for `CC1(C(=O)N2CCC[C@@H](c3nc(-c4ccc(C(=O)Nc5cc(C#N)ccn5)cc4)c4c(N)ncc(Cl)n34)C2)COC1` [Example 445, 4-(8-amino-5-chloro-3-{(3R)-1-[(3-methyloxetan-3-yl)carbonyl]piperidin-3-yl}imidazo[1,5-a]pyrazin-1-yl)-N-(4-cyanopyridin-2-yl)benzamide] reads less than 10 nM.

The same test, now with this note: Table D; Assay Method C (LANCE TR-FRET), 50 pM hBTK, 25 μM ATP; read-out: IC50 BTK activity value.
Regarding `C[C@H]1CC[C@@H](c2nc(-c3ccc(C(=O)Nc4cc(C(C)(F)F)ccn4)cc3)c3c(N)nccn23)CN1C(=O)C1(C)COC1` [Example 413, 4-(8-amino-3-{(3R,6S)-6-methyl-1-[(3-methyloxetan-3-yl)carbonyl]piperidin-3-yl}imidazo[1,5-a]pyrazin-1-yl)-N-[4-(1,1-difluoroethyl)pyridin-2-yl]benzamide], the IC50 worked out at 0.2 nM. Same read-out and setting: as for `C[C@H]1CC[C@@H](c2nc(-c3ccc(C(=O)Nc4cc(C(F)F)ccn4)cc3F)c3c(N)nccn23)CN1C(=O)C1CC1` [Example 436, 4-{8-amino-3-[(3R,6S)-1-(cyclopropylcarbonyl)-6-methylpiperidin-3-yl]imidazo[1,5-a]pyrazin-1-yl}-N-[4-(difluoromethyl)pyridin-2-yl]-3-fluorobenzamide], the figure is 0.479 nM.
